Results as given in the supplement of paper PMC11208160.

Test: recombinant barcode read abundance after kanamycin selection (control-corrected) (log10(CPM+1)); higher = more efficient recombination; sequences stand for … in AGTGCAGAGAAAATCGGCCAGTTTTCTCTGCCTGCAGTCCGCATGCCGT…AGATTTATGCAGCGGACTGCCTTTCTCCCAAAGTGATAAACCGGACAGTATCATGGACCGGTTTTCCCGGTAATCCGTATTTGCAAGGTTGGTTTCACT; site = the 11-nt target
Method in brief: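 Recombination efficiency in this pooled E. coli screen uses counts per million of barcodes at recombinant junctions, averaged and corrected against the control. The reported form is log10(CPM+1). Two replicates were plated on chloramphenicol/ampicillin LB agar as control and two on chloramphenicol/ampicillin/kanamycin with 0.1 mM IPTG.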
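Further: IS621 recombinase and bridge RNA in Escherichia coli cells.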

Compared with “TTGAGTGCTTGGGTTCTAACCTGTTGCCT (site TTGAGTGCTAG)”, “TTGAGTGCTTGGGTTCTAACCTGTTGCCT (site TTGATTGCTAG)” is lower in “recombinant barcode read abundance (log10)” value: 0.804 for the first, 0.254 for the second.

“TTGATTGCTTGGGTTCTAACCTGTTGCCT (site TTGAATGCTAG)” and “TTGATTGCTTGGGTTCTAACCTGTTGCCT (site TTGACTGCTAG)” are within 0.2 log units of each other in “recombinant barcode read abundance (log10)” value: 0.0762 for the first, 0.0306 for the second.

“TTGATTGCTTGGGTTCTAACCTGTTGCCT (site TTGAGTGCTAG)” and “TTGATTGCTTGGGTTCTAACCTGTTGCCT (site TTGATTGCTAG)” are within 0.2 log units of each other in “recombinant barcode read abundance (log10)” value: 0.425 for the first, 0.497 for the second.

Compared with “TTGCGTGCTTGGGTTCTAACCTGTTGCTT (site TTGCGAGCTAT)”, “TTGCGTGCTTGGGTTCTAACCTGTTGCTT (site TTGCGTGCTAA)” is higher in “recombinant barcode read abundance (log10)” value: 0.27 for the first, 0.518 for the second.

Compared with “TTGCTAGCTTGGGTTCTAACCTGTTGCGG (site GGAACTACTGT)”, “TTGCTAGCTTGGGTTCTAACCTGTTGCGG (site TTGCTAGCTCC)” is higher in “recombinant barcode read abundance (log10)” value: 0.0762 for the first, 1.56 for the second.

First: TTGGAAGCTTGGGTTCTAACCTGTTGCCT (site TTGGAAGCTAG)
Second: TTGGAAGCTTGGGTTCTAACCTGTTGCCT (site TTGGCAGCTAG)
The “recombinant barcode read abundance (log10)” value of the first is higher: 2.1 for the first, 0.0513 for the second.

First: TTGGAAGCTTGGGTTCTAACCTGTTGCCT (site TTGGGAGCTAG)
Second: TTGGAAGCTTGGGTTCTAACCTGTTGCCT (site TTGGTAGCTAG)
The “recombinant barcode read abundance (log10)” value of the first is lower: 0.541 for the first, 2.19 for the second.

First: TTGGAGGCTTGGGTTCTAACCTGTTGCCT (site AGCAGTACTTA)
Second: TTGGAGGCTTGGGTTCTAACCTGTTGCCT (site TTGGAGGCTAG)
The “recombinant barcode read abundance (log10)” value of the first is lower: 0.0388 for the first, 1.45 for the second.

Compared with “TTGGATCCTTGGGTTCTAACCTGTTGCCT (site TTGGATCCTAA)”, “TTGGATCCTTGGGTTCTAACCTGTTGCCT (site TTGGATCCTAG)” is higher in “recombinant barcode read abundance (log10)” value: 0.382 for the first, 2.31 for the second.

Going from “TTGGCGCCTTGGGTTCTAACCTGTTGCCT (site TCGGCTCCTAG)” to “TTGGCGCCTTGGGTTCTAACCTGTTGCCT (site TTGGCGCCTAG)”, the “recombinant barcode read abundance (log10)” value rises from 0.0935 to 0.529.

First: TTGGGAGCTTGGGTTCTAACCTGTTGCCT (site TTGGAAGCTAG)
Second: TTGGGAGCTTGGGTTCTAACCTGTTGCCT (site TTGGCAGCTAG)
The “recombinant barcode read abundance (log10)” value of the first is higher: 0.984 for the first, 0.11 for the second.

Going from “TTGGGAGCTTGGGTTCTAACCTGTTGCCT (site TTGGGAGCTAG)” to “TTGGGAGCTTGGGTTCTAACCTGTTGCCT (site TTGGTAGCTAG)”, the “recombinant barcode read abundance (log10)” value falls from 2.26 to 0.442.

“TTGGGCGCTTGGGTTCTAACCTGTTGCCT (site TTGGACGCTAG)” and “TTGGGCGCTTGGGTTCTAACCTGTTGCCT (site TTGGCCGCTAG)” are within 0.2 log units of each other in “recombinant barcode read abundance (log10)” value: 0.0866 for the first, 0.154 for the second.

First: TTGGGCGCTTGGGTTCTAACCTGTTGCCT (site TTGGGCGCTAG)
Second: TTGGGCGCTTGGGTTCTAACCTGTTGCCT (site TTGGTCGCTAG)
The “recombinant barcode read abundance (log10)” value of the first is higher: 0.643 for the first, 0.0335 for the second.

“TTGGTCACTTGGGTTCTAACCTGTTGCCT (site TTGGACACTAG)” and “TTGGTCACTTGGGTTCTAACCTGTTGCCT (site TTGGCCACTAG)” are within 0.2 log units of each other in “recombinant barcode read abundance (log10)” value: 0.358 for the first, 0.309 for the second.

Compared with “TTGGTCACTTGGGTTCTAACCTGTTGCCT (site TTGGGCACTAG)”, “TTGGTCACTTGGGTTCTAACCTGTTGCCT (site TTGGTCACTAG)” is higher in “recombinant barcode read abundance (log10)” value: 0.205 for the first, 2.1 for the second.

Compared with “TTGGTCGCTTGGGTTCTAACCTGTTGCCT (site TTGGACGCTAG)”, “TTGGTCGCTTGGGTTCTAACCTGTTGCCT (site TTGGCCGCTAG)” is higher in “recombinant barcode read abundance (log10)” value: 0.0736 for the first, 1.4 for the second.

First: TTGGTCGCTTGGGTTCTAACCTGTTGCCT (site TTGGGCGCTAG)
Second: TTGGTCGCTTGGGTTCTAACCTGTTGCCT (site TTGGTCGCTAG)
The “recombinant barcode read abundance (log10)” value of the first is lower: 0.085 for the first, 1.71 for the second.

First: TTGTAGACTTGGGTTCTAACCTGTTGCCT (site TTGATGACTAG)
Second: TTGTAGACTTGGGTTCTAACCTGTTGCCT (site TTGTAGACTAG)
The “recombinant barcode read abundance (log10)” value of the first is lower: 0.484 for the first, 1.22 for the second.

Compared with “TTGTGTTCTTGGGTTCTAACCTGTTGCTA (site GTGTGTTCTTG)”, “TTGTGTTCTTGGGTTCTAACCTGTTGCTA (site TTGTGTTCTTA)” is higher in “recombinant barcode read abundance (log10)” value: 0.0284 for the first, 0.465 for the second.
